# Measurements: US20250243171A1, “QUINAZOLINE COMPOUNDS FOR TREATMENT OF DISEASE” (Arthrosi Therapeutics, Inc., priority 2021, published 2025)
# pEC50: −log10 of the molar value.
# What was measured:
# Experiment in all cases: EC50 assay: Ba/F3 stable cell proliferation (CCK-8, 72 h)
# Type in all cases: cell-based
# [1] = molecular target: T1, Ba/F3 stable cells (Homo sapiens, UniProt P04626, DUP772-775, cells depend on it); details: Ba/F3-HER2 A775-G776insYVMA cells
# T1 construct: EC50 Ba/F3-HER2 A775-G776insYVMA; other: Ba/F3-HER2 A775-G776insYVMA cells, 72 h, CCK-8
# T1 sequence (P04626 with tags, fused parts or gaps DUP772-775): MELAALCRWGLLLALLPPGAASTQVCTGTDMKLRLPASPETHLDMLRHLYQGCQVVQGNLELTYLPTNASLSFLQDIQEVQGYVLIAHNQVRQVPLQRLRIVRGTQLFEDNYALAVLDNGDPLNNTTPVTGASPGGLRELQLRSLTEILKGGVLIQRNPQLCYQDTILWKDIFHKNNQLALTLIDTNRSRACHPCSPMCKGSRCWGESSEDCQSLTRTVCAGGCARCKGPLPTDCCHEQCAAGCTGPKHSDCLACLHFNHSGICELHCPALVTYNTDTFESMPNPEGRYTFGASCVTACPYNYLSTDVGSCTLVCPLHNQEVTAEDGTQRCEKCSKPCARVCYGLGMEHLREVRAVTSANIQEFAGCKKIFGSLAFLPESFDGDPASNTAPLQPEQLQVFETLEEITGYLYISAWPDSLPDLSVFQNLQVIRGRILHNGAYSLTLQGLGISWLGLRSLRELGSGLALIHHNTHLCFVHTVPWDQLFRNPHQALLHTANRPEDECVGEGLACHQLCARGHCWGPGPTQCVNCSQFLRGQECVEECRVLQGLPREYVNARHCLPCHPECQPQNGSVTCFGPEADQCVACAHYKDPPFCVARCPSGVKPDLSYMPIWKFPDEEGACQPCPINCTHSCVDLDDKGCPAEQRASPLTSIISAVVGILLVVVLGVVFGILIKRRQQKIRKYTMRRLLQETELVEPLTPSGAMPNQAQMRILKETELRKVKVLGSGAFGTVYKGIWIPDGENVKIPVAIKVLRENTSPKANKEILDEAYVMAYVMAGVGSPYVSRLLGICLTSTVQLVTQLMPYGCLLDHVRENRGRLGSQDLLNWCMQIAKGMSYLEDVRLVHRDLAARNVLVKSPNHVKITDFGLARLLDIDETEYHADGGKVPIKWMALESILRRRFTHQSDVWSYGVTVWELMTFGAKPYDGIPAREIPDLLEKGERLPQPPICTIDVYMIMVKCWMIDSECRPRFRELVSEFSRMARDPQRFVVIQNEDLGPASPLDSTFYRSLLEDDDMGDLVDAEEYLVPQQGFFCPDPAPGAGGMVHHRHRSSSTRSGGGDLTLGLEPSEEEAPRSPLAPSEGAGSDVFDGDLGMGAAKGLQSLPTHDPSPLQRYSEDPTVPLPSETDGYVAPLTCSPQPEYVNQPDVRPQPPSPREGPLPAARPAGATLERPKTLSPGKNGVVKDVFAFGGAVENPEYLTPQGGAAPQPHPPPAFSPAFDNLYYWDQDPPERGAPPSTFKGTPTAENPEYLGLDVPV
# Method in brief: (§1)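 Ba/F3 stable cells were seeded at 4,000 cells/90 μL/well in 96-well plates and held 2 h at 37° C. in 5% CO2, then given 10 μL of serially titrated compound (0.1% DMSO final). After 72 h at 37° C., CCK-8 reagent was added for 4 hours and absorbance read at 450 nm to derive EC50.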
# [2] = molecular target: T2, Ba/F3 stable cells (Homo sapiens, UniProt P00533, INS763FQEA, cells depend on it); details: Ba/F3-EGFR A763-Y764insFQEA cells
# T2 construct: EC50 Ba/F3-EGFR A763-Y764insFQEA; other: Ba/F3-EGFR A763-Y764insFQEA cells, 72 h, CCK-8
# Method in brief: as §1
# [3] = molecular target: T3, Ba/F3 stable cells (Homo sapiens, UniProt P00533, DUP767-769, cells depend on it); details: Ba/F3-EGFR V769-D770insASV cells
# T3 construct: EC50 Ba/F3-EGFR V769-D770insASV; other: Ba/F3-EGFR V769-D770insASV cells, 72 h, CCK-8
# Method in brief: as §1
# [4] = molecular target: T4, Ba/F3 stable cells (Homo sapiens, UniProt P00533, DUP768-770, cells depend on it); details: Ba/F3-EGFR D770-N771insSVD cells
# T4 construct: EC50 Ba/F3-EGFR D770-N771insSVD; other: Ba/F3-EGFR D770-N771insSVD cells, 72 h, CCK-8
# T4 sequence (P00533 with tags, fused parts or gaps DUP768-770): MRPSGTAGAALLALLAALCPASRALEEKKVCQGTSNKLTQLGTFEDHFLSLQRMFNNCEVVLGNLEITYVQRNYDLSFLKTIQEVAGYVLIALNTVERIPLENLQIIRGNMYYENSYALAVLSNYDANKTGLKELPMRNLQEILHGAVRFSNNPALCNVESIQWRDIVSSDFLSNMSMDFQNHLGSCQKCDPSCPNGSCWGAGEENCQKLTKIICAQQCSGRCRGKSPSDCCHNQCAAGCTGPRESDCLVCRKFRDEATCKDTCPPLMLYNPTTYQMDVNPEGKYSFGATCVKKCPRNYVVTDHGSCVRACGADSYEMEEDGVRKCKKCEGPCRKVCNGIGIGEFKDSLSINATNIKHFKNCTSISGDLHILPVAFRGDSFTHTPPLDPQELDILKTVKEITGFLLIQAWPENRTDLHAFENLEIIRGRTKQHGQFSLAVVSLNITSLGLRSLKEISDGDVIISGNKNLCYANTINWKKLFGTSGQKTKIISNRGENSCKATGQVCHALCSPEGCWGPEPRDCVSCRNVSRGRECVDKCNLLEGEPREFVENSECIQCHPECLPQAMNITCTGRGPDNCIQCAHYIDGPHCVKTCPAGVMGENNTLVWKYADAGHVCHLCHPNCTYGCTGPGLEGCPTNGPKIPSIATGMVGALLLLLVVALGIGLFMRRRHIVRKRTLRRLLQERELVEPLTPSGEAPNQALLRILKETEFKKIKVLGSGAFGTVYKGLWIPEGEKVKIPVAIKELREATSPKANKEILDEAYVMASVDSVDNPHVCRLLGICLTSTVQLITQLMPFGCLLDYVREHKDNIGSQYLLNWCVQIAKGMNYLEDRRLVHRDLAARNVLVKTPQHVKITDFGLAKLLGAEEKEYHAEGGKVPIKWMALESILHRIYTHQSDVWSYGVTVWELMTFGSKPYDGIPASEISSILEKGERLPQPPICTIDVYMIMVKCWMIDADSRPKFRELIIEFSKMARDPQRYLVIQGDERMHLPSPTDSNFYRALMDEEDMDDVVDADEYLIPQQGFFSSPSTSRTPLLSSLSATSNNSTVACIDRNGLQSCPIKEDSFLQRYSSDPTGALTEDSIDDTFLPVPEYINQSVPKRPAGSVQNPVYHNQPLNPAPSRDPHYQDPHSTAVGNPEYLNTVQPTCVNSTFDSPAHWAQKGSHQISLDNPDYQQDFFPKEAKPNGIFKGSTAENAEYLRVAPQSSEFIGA
# Method in brief: as §1
# [5] = molecular target: T5, Ba/F3 stable cells (Homo sapiens, UniProt P00533, T790M/L858R, cells depend on it); details: Ba/F3-EGFR L858R-T790M cells
# T5 construct: EC50 Ba/F3-EGFR L858R-T790M; other: Ba/F3-EGFR L858R-T790M cells, 72 h, CCK-8
# T5 sequence (P00533 whole entry T790M/L858R): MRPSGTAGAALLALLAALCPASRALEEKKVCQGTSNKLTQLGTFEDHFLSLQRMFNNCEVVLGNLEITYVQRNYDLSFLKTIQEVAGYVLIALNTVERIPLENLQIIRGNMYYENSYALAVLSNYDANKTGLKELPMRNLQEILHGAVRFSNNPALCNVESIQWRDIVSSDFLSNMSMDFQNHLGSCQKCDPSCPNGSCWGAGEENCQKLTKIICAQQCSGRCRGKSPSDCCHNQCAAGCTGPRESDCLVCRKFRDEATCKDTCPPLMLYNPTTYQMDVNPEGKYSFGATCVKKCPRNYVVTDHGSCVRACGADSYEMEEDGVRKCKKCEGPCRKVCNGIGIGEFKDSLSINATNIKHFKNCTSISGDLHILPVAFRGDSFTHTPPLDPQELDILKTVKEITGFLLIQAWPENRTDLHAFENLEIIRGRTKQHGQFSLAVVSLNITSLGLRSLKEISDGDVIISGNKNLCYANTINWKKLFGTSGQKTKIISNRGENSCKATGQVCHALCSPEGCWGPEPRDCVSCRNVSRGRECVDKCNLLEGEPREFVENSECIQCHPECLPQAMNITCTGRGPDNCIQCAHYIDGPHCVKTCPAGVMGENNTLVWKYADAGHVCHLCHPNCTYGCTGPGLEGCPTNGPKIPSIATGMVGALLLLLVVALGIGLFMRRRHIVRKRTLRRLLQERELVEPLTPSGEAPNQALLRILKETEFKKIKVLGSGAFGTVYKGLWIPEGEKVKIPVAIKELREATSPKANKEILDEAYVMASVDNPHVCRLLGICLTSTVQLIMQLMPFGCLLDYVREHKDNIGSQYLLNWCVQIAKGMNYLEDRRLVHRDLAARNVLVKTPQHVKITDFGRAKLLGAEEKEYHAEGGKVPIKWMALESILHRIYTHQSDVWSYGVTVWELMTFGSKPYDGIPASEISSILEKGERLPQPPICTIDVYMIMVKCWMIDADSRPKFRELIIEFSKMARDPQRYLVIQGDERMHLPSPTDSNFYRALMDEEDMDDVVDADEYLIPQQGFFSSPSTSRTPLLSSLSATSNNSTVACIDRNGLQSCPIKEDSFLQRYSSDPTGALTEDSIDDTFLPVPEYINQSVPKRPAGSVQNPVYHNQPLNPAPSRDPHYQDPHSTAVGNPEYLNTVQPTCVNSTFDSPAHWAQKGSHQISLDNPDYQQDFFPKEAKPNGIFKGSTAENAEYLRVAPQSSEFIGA
# Method in brief: as §1
# [6] = molecular target: T6, Ba/F3 stable cells (Homo sapiens, UniProt P00533, DUP771-773, cells depend on it); details: Ba/F3-EGFR H773-V774insNPH cells
# T6 construct: EC50 Ba/F3-EGFR H773-V774insNPH; other: Ba/F3-EGFR H773-V774insNPH cells, 72 h, CCK-8
# T6 sequence (P00533 with tags, fused parts or gaps DUP771-773): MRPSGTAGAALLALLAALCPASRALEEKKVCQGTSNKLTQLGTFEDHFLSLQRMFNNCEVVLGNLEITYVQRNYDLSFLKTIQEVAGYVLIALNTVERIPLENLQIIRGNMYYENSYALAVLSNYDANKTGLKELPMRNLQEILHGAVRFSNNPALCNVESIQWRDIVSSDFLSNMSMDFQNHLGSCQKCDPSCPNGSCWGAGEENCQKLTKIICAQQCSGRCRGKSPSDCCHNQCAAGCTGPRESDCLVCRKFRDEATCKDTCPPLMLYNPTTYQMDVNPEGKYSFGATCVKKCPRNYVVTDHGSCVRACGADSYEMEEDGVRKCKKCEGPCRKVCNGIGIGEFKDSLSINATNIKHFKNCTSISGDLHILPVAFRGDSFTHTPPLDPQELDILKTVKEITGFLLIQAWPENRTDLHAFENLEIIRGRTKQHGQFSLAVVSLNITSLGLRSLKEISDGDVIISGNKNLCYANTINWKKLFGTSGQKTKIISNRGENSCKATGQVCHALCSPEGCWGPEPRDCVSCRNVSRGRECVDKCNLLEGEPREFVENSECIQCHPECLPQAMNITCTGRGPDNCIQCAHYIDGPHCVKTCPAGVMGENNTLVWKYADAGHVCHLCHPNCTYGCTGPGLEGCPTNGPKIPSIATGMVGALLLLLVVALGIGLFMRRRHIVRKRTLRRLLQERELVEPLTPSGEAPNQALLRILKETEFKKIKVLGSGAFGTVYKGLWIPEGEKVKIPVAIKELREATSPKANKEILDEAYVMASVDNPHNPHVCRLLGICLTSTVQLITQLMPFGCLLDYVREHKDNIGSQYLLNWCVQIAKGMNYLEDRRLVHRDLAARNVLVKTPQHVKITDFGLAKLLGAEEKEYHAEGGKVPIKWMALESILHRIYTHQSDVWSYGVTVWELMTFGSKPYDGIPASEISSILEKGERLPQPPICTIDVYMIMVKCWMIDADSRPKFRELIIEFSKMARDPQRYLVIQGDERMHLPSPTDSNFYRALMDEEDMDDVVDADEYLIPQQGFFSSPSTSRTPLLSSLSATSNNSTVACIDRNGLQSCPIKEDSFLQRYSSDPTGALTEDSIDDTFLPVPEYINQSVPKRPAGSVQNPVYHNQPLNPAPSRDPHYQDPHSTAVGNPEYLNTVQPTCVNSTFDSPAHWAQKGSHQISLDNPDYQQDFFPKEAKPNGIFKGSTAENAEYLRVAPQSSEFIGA
# Method in brief: as §1
SMILES,pEC50 [1],pEC50 [2],pEC50 [3],pEC50 [4],pEC50 [5],pEC50 [6]
"C#CC(=O)N[C@H]1C[C@H](Oc2cc3c(Nc4ccc5ccccc5c4)ncnc3cc2OC)C1 [Compound 48, N-((1r,3r)-3-((7-methoxy-4-(naphthalen-2-ylamino)quinazolin-6-yl)oxy)cyclobutyl)propiolamide]",6.00 to 6.70,≥ 6.70,≥ 6.70,6.00 to 6.70,≥ 6.70,6.00 to 6.70
"C#CC(=O)NC1CC(Oc2cc3c(Nc4ccc(Cl)c(Cl)c4F)ncnc3cc2OC)C1 (stereo not drawn) [Compound 49, N-(3-((4-((3,4-dichloro-2-fluorophenyl)amino)-7-methoxyquinazolin-6-yl)oxy)cyclobutyl)propiolamide]",6.00 to 6.70,≥ 6.70,≥ 6.70,≥ 6.70,≥ 6.70,≥ 6.70
"C=C(F)C(=O)N1CCC(Oc2cc3c(Nc4ccc(Cl)c(Cl)c4F)ncnc3cc2OC)CC1 [Compound 50, 1-(4-((4-((3,4-dichloro-2-fluorophenyl)amino)-7-methoxyquinazolin-6-yl)oxy)piperidin-1-yl)-2-fluoroprop-2-en-1-one]",6.00 to 6.70,≥ 6.70,≥ 6.70,< 6.00,< 6.00,6.00 to 6.70
"C#CC(=O)N1CCC(Oc2cc3c(Nc4ccc(Cl)c(Cl)c4F)ncnc3cc2OC)CC1 [Compound 52, 1-(4-((4-((3,4-dichloro-2-fluorophenyl)amino)-7-methoxyquinazolin-6-yl)oxy)piperidin-1-yl)prop-2-yn-1-one]",6.00 to 6.70,≥ 6.70,≥ 6.70,≥ 6.70,≥ 6.70,≥ 6.70
"C#CC(=O)N1CCC(Oc2cc3c(Nc4ccc5ccccc5c4)ncnc3cc2OC)CC1 [Compound 53, 1-(4-((7-methoxy-4-(naphthalen-2-ylamino)quinazolin-6-yl)oxy)piperidin-1-yl)prop-2-yn-1-one]",≥ 6.70,≥ 6.70,≥ 6.70,≥ 6.70,≥ 6.70,≥ 6.70
"C#CC(=O)N1CCC(Oc2cc3c(Nc4cccc5ccccc45)ncnc3cc2OC)CC1 [Compound 54, 1-(4-((7-methoxy-4-(naphthalen-1-ylamino)quinazolin-6-yl)oxy)piperidin-1-yl)prop-2-yn-1-one]",≥ 6.70,≥ 6.70,≥ 6.70,≥ 6.70,≥ 6.70,≥ 6.70
"C#CC(=O)N1C2CCC1CC(Oc1cc3c(Nc4cccc5c4CCC5)ncnc3cc1OC)C2 (stereo not drawn) [Compound 56, 1-(3-((4-((2,3-dihydro-1H-inden-4-yl)amino)-7-methoxyquinazolin-6-yl)oxy)-8-azabicyclo[3.2.1]octan-8-yl)prop-2-yn-1-one]",6.00 to 6.70,≥ 6.70,≥ 6.70,6.00 to 6.70,6.00 to 6.70,≥ 6.70
"C#CC(=O)N1C2CCCC1CC(Oc1cc3c(Nc4cccc5ccccc45)ncnc3cc1OC)C2 (stereo not drawn) [Compound 57, 1-(3-((7-methoxy-4-(naphthalen-1-ylamino)quinazolin-6-yl)oxy)-9-azabicyclo[3.3.1]nonan-9-yl)prop-2-yn-1-one]",≥ 6.70,≥ 6.70,≥ 6.70,≥ 6.70,≥ 6.70,≥ 6.70
"C#CC(=O)N1C2CCCC1CC(Oc1cc3c(Nc4ccc5ccccc5c4)ncnc3cc1OC)C2 (stereo not drawn) [Compound 58, 1-(3-((7-methoxy-4-(naphthalen-2-ylamino)quinazolin-6-yl)oxy)-9-azabicyclo[3.3.1]nonan-9-yl)prop-2-yn-1-one]",≥ 6.70,≥ 6.70,≥ 6.70,6.00 to 6.70,≥ 6.70,≥ 6.70
"C#CC(=O)N1C2CCC1CC(Oc1cc3c(Nc4ccc5ccccc5c4)ncnc3cc1OC)C2 (stereo not drawn) [Compound 59, 1-(3-((7-methoxy-4-(naphthalen-2-ylamino)quinazolin-6-yl)oxy)-8-azabicyclo[3.2.1]octan-8-yl)prop-2-yn-1-one]",6.00 to 6.70,≥ 6.70,≥ 6.70,6.00 to 6.70,≥ 6.70,≥ 6.70
